The results in this text go back to patent US12371454B2, “Cyclic peptide compound having Kras inhibitory action” (priority 2019, dated 2025).

For test [1], the target named is T1, Kras and SOS1 (biotin-tagged human Kras loaded with GDP, His-tagged human SOS1) (Homo sapiens, UniProt P01116, G12D).
T1 construct: made in house; host or cells: E. coli (stated for Kras only)
Briefly: Protein-protein interaction inhibition between Kras and SOS1 (KrasGl2D-SOS PPI) using AlphaScreen. The format is binding. Conditions: AlphaScreen; biotin-tagged human Kras loaded with GDP, His-tagged human SOS1; read-out: KRAS G12D-SOS PPI IC50. In a few lines:
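Binding between SOS1 and Kras is detected as bead-proximity luminescence: illuminate Ni-conjugated donors (680 nm), collect 520-620 nm emission from streptavidin-conjugated acceptors; Kras carries biotin and GDP loaded after purification, SOS1 carries a His tag.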

Test [2] concerns Human pancreatic cancer cell line AsPC-1. Nature of the test: Measurement of AsPC-1 cell growth inhibition (AsPC-1 CGI). Format: cell-based. Conditions: 96 h. The essentials: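 AsPC-1 cells in 15% FBS RPMI-1640 were exposed to test compound for 96 hours at 37° C, with CellTiter-Glo as endpoint.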

Starred links: 1 amine or outer side, 2 acyl side, 3 side chain; linkers in the order of their positions; H or OH if unused. Positions of bridges follow the written chain, without caps; N, C: chain ends. Non-standard residues stand in square brackets, D forms with d. Residues, ends and D or L forms follow the SMILES beside them. *: point of attachment. hPhe(3-Cl-4-CF3) = N[C@@H](CCc1ccc(C(F)(F)F)c(Cl)c1)C(=O)O; NMePhe(4-CF3) = CN[C@@H](Cc1ccc(C(F)(F)F)cc1)C(=O)O; NEtAsp = CCN([C@@H](CC(=O)[*:3])C(=O)[*:2])[*:1]; X49 = Cn1ccc2cc(CC[C@H](N[*:1])C(=O)[*:2])ccc21; NMePhe(4-Br) = CN[C@@H](Cc1ccc(Br)cc1)C(=O)O; X3 = CN([C@@H](CCc1ccncc1)C(=O)[*:2])[*:1]; hPhe(4-Cl) = N[C@@H](CCc1ccc(Cl)cc1)C(=O)O; NMedβ3hAla = C[C@H](CC(=O)[*:2])N(C)[*:1]; NMeGly(cPent) = CN[C@H](C(=O)O)C1CCCC1; NMeCha = CN[C@@H](CC1CCCCC1)C(=O)O; NMeChg = CN[C@H](C(=O)O)C1CCCCC1; NMeD = CN[C@@H](CC(=O)O)C(=O)O; NMeL = CN[C@@H](CC(C)C)C(=O)O; NMeNva = CCC[C@H](NC)C(=O)O; NMeV = CN[C@H](C(=O)O)C(C)C; d(β3hA) = C[C@@H](N)CC(=O)O; NMeS = CN[C@@H](CO)C(=O)O; Morpholide = C1CN(*)CCO1; NMeA = CN[C@@H](C)C(=O)O; Piperidide = C1CCN(*)CC1; Pyrrolidide = C1CCN(*)C1; dNMeA = CN[C@H](C)C(=O)O; Ac5c = NC1(C(=O)O)CCCC1; Aze = O=C(O)[C@@H]1CCN1; Sar = CNCC(=O)O; Propyl = CCC*

T1 sequence (P01116 1-188 isoform P01116-2 G12D): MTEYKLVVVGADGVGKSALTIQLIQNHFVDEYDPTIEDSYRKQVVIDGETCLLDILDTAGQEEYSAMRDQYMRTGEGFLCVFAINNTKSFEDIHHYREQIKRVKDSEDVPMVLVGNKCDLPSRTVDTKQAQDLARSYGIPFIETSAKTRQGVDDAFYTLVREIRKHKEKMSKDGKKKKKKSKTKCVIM

For `CC[C@H](C)[C@@H]1NC(=O)[C@H](CC(C)C)N(C)C(=O)C[C@@H](C)NC(=O)[C@H](C(C)C)N(C)C(=O)C2(CCCC2)NC(=O)[C@@H]2CCCN2C(=O)[C@H](CCc2ccc(C(F)(F)F)c(Cl)c2)NC(=O)CN(C)C(=O)[C@H](Cc2ccc(Br)cc2)N(C)C(=O)CN(C)C(=O)CN(C)C1=O` [Compound 1625] (cyclo([Ac5c][NMeV][d(β3hA)][NMeL]I[Sar][Sar][NMePhe(4-Br)][Sar][hPhe(3-Cl-4-CF3)]P)), the IC50 (in general, the concentration that gives 50% inhibition) in test [1] was 0.0072 µM; in test [2] it was 0.1 to 0.5 µM.

Take `CC[C@H](C)[C@@H]1NC(=O)[C@H](CC(C)C)N(C)C(=O)C[C@@H](C(=O)N2CCCCC2)N(C)C(=O)[C@H](C2CCCC2)N(C)C(=O)C2(CCCC2)NC(=O)[C@@H]2CCCN2C(=O)[C@H](CCc2ccc3c(ccn3C)c2)NC(=O)CN(C)C(=O)[C@H](CC2CCCCC2)N(C)C(=O)[C@@H]2CCN2C(=O)[C@H](C)N(C)C1=O` [Compound 2064] ([NMeL]I[NMeA][Aze][NMeCha][Sar][X49]P[Ac5c][NMeGly(cPent)][NMeD]-Piperidide; lactam N-11): the IC50 in test [1] is 0.012 µM; in test [2] it was 0.1 to 0.5 µM.

`CC[C@H](C)[C@@H]1NC(=O)[C@H](C)N(C)C(=O)C[C@@H](C)N(C)C(=O)[C@H](C(C)C)N(C)C(=O)C2(CCCC2)NC(=O)[C@@H]2CCCN2C(=O)[C@H](CCc2ccc(C(F)(F)F)c(Cl)c2)NC(=O)[C@@H](C)N(C)C(=O)[C@H](CC2CCCCC2)N(C)C(=O)[C@@H]2CCCN2C(=O)CN(C)C1=O` [Compound 1784] (cyclo([Ac5c][NMeV][NMedβ3hAla][NMeA]I[Sar]P[NMeCha][dNMeA][hPhe(3-Cl-4-CF3)]P)): the IC50 in test [1] is 0.011 µM; in test [2] it was 0.05 to 0.1 µM.

Regarding `CCCOC[C@H]1C(=O)N(C)CC(=O)N[C@@H](CCc2ccc(C(F)(F)F)c(Cl)c2)C(=O)N2CCC[C@H]2C(=O)NC2(CCCC2)C(=O)N(C)[C@@H](C2CCCCC2)C(=O)N(C)[C@H](C(=O)N2CCOCC2)CC(=O)N(C)[C@@H](CCC)C(=O)N[C@@H]([C@@H](C)CC)C(=O)N(C)CC(=O)N(C)CC(=O)N1C` [Compound 1949] ([NMeNva]I[Sar][Sar][NMeS](Propyl)[Sar][hPhe(3-Cl-4-CF3)]P[Ac5c][NMeChg][NMeD]-Morpholide; lactam N-11), the results for the IC50 in test [1] and in test [2] were 0.0006 µM and 0.1 to 0.5 µM, respectively.

In the case of `CCC[C@H]1C(=O)N[C@@H]([C@@H](C)CC)C(=O)N(C)CC(=O)N(C)CC(=O)N(C)[C@@H](Cc2ccc(C(F)(F)F)cc2)C(=O)N(C)CC(=O)N[C@@H](CCc2ccc(C(F)(F)F)c(Cl)c2)C(=O)N2CCC[C@H]2C(=O)NC2(CCCC2)C(=O)N(C)[C@@H](C2CCCCC2)C(=O)N(C)[C@H](C(=O)N2CCCC2)CC(=O)N1C` [Compound 1984] ([NMeNva]I[Sar][Sar][NMePhe(4-CF3)][Sar][hPhe(3-Cl-4-CF3)]P[Ac5c][NMeChg][NMeD]-Pyrrolidide; lactam N-11), the IC50 in test [1] is 0.00038 µM; in test [2] it was 0.02 to 0.05 µM.

`CC[C@H](C)[C@@H]1NC(=O)[C@H](C)N(C)C(=O)C[C@@H](C(=O)N2CCCCC2)N(C)C(=O)[C@H](C2CCCCC2)N(C)C(=O)C2(CCCC2)NC(=O)[C@@H]2CCCN2C(=O)[C@H](CCc2ccc(Cl)cc2)NC(=O)CN(C)C(=O)[C@H](CC2CCCCC2)N(C)C(=O)CN(C)C(=O)CN(C)C1=O` [Compound 292] ([NMeA]I[Sar][Sar][NMeCha][Sar][hPhe(4-Cl)]P[Ac5c][NMeChg][NMeD]-Piperidide; lactam N-11): the IC50 is 0.00045 µM in test [1] and 0.05 to 0.1 µM in test [2].

For the compound `CC[C@H](C)[C@@H]1NC(=O)[C@H](CC(C)C)N(C)C(=O)C[C@@H](C(=O)N(C)C)N(C)C(=O)[C@H](C2CCCC2)N(C)C(=O)C2(CCCC2)NC(=O)[C@H](CCc2ccncc2)N(C)C(=O)[C@H](CCc2ccc(C(F)(F)F)c(Cl)c2)NC(=O)CN(C)C(=O)[C@H](CC2CCCCC2)N(C)C(=O)[C@@H]2CCN2C(=O)[C@H](C)N(C)C1=O` [Compound 1881] ([NMeL]I[NMeA][Aze][NMeCha][Sar][hPhe(3-Cl-4-CF3)][X3][Ac5c][NMeGly(cPent)][NMeD]-NMe2; lactam N-11), the values for the IC50 in test [1] and in test [2] were 0.0014 µM and 0.05 to 0.1 µM, respectively.

Consider `CC[C@H](C)[C@@H]1NC(=O)[C@H](C)N(C)C(=O)C[C@@H](C(=O)N2CCCCC2)N(CC)C(=O)[C@H](C2CCCC2)N(C)C(=O)C2(CCCC2)NC(=O)[C@@H]2CCCN2C(=O)[C@H](CCc2ccc(C(F)(F)F)c(Cl)c2)NC(=O)CN(C)C(=O)[C@H](CC2CCCCC2)N(C)C(=O)CN(C)C(=O)CN(C)C1=O` [Compound 532] ([NMeA]I[Sar][Sar][NMeCha][Sar][hPhe(3-Cl-4-CF3)]P[Ac5c][NMeGly(cPent)][NEtAsp]-Piperidide; lactam N-11), for which the IC50 in test [1] is 0.00048 µM; in test [2] it was 0.05 to 0.1 µM.
